From US11617726B2, “Method for preventing, treating, or ameliorating a microbial infection” (priority 2018, dated 2023)

Tested on: Acinetobacter baumannii isolates
Test: Antimicrobial susceptibility test, disc diffusion method (CLSI M100-S24)
Type: cell-based
Design: key to Inhibition zone: “NZ” indicated that no zone of inhibition was observed
Conditions: for susceptibility category: LEV disc; for Inhibition zone: disc diffusion
Summary of the method: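 Disc diffusion per CLSI M100-S24 on 33 MDR clinical A. baumannii isolates from burn wards; 0.5 McFarland inoculum swabbed onto Mueller-Hinton agar, incubated aerobically 35-37° C, 18-20 h. Zone diameters measured to nearest mm and categorized S/I/R by CLSI breakpoints.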

Question: Which results are given for `C[C@H]1COc2c(N3CCN(C)CC3)c(F)cc3c(=O)c(C(=O)O)cn1c23` [LEV, Levofloxacin]?
Answer: susceptibility category (isolate AB1): S (Sensitive ≥17); Inhibition zone (isolate AB1): 30 mm; susceptibility category (isolate AB2): S (Sensitive ≥17); Inhibition zone (isolate AB2): 30 mm; susceptibility category (isolate AB3): S (Sensitive ≥17); Inhibition zone (isolate AB3): 29 mm; susceptibility category (isolate AB4): S (Sensitive ≥17); Inhibition zone (isolate AB4): 30 mm; susceptibility category (isolate AB5): S (Sensitive ≥17); Inhibition zone (isolate AB5): 19 mm; susceptibility category (isolate AB6): S (Sensitive ≥17); Inhibition zone (isolate AB6): 21 mm; susceptibility category (isolate AB7): I (Intermediate 14-16); Inhibition zone (isolate AB7): 14 mm; susceptibility category (isolate AB8): I (Intermediate 14-16); Inhibition zone (isolate AB8): 15 mm; susceptibility category (isolate AB9): S (Sensitive ≥17); Inhibition zone (isolate AB9): 28 mm; susceptibility category (isolate AB10): I (Intermediate 14-16); Inhibition zone (isolate AB10): 14 mm; susceptibility category (isolate AB11): R (Resistant ≤13); Inhibition zone (isolate AB11): 11 mm; susceptibility category (isolate AB12): R (Resistant ≤13); Inhibition zone (isolate AB12): 10 mm; susceptibility category (isolate AB13): R (Resistant ≤13); Inhibition zone (isolate AB13): 8 mm; susceptibility category (isolate AB14): R (Resistant ≤13); Inhibition zone (isolate AB14): 11 mm; susceptibility category (isolate AB15): I (Intermediate 14-16); Inhibition zone (isolate AB15): 15 mm; susceptibility category (isolate AB16): R (Resistant ≤13); Inhibition zone (isolate AB16): NZ; susceptibility category (isolate AB17): R (Resistant ≤13); Inhibition zone (isolate AB17): 11 mm; susceptibility category (isolate AB18): R (Resistant ≤13); Inhibition zone (isolate AB18): 13 mm; susceptibility category (isolate AB19): R (Resistant ≤13); Inhibition zone (isolate AB19): 11 mm; susceptibility category (isolate AB20): R (Resistant ≤13); Inhibition zone (isolate AB20): 13 mm; susceptibility category (isolate AB21): I (Intermediate 14-16); Inhibition zone (isolate AB21): 14 mm; susceptibility category (isolate AB22): I (Intermediate 14-16); Inhibition zone (isolate AB22): 14 mm; susceptibility category (isolate AB23): R (Resistant ≤13); Inhibition zone (isolate AB23): 11 mm; susceptibility category (isolate AB24): R (Resistant ≤13); Inhibition zone (isolate AB24): 12 mm; susceptibility category (isolate AB25): I (Intermediate 14-16); Inhibition zone (isolate AB25): 14 mm; susceptibility category (isolate AB26): R (Resistant ≤13); Inhibition zone (isolate AB26): NZ; susceptibility category (isolate AB27): R (Resistant ≤13); Inhibition zone (isolate AB27): 8 mm; susceptibility category (isolate AB28): I (Intermediate 14-16); Inhibition zone (isolate AB28): 15 mm; susceptibility category (isolate AB29): I (Intermediate 14-16); Inhibition zone (isolate AB29): 15 mm; susceptibility category (isolate AB30): I (Intermediate 14-16); Inhibition zone (isolate AB30): 15 mm; susceptibility category (isolate AB31): R (Resistant ≤13); Inhibition zone (isolate AB31): 10 mm; susceptibility category (isolate AB32): S (Sensitive ≥17); Inhibition zone (isolate AB32): 18 mm; susceptibility category (isolate AB33): S (Sensitive ≥17); Inhibition zone (isolate AB33): 30 mm

Question: How did the Inhibition zone (isolate AB1) turn out when `NC[C@@H]1O[C@H](O[C@H]2[C@@H](O)[C@H](O[C@@H]3[C@@H](O)[C@H](N)C[C@H](N)[C@H]3O[C@H]3O[C@H](CN)[C@@H](O)[C@H](O)[C@H]3N)O[C@@H]2CO)[C@H](N)[C@@H](O)[C@@H]1O` [NEO, Neomycin] was run?
Answer: 23 mm

Question: What about the Inhibition zone (isolate AB2) of the same compound?
Answer: 20 mm

Question: And the Inhibition zone (isolate AB3)?
Answer: 22 mm

Question: What about the Inhibition zone (isolate AB4) of the same compound?
Answer: 27 mm

Question: And the Inhibition zone (isolate AB5)?
Answer: 10 mm

Question: What about the Inhibition zone (isolate AB6) of the same compound?
Answer: 14 mm

Question: What about the Inhibition zone (isolate AB7) of the same compound?
Answer: 12 mm

Question: What about the Inhibition zone (isolate AB8) of the same compound?
Answer: 11 mm

Question: What about the Inhibition zone (isolate AB9) of the same compound?
Answer: 20 mm

Question: And the Inhibition zone (isolate AB10)?
Answer: NZ

Question: And the Inhibition zone (isolate AB11)?
Answer: NZ

Question: What about the Inhibition zone (isolate AB12) of the same compound?
Answer: 15 mm

Question: And the Inhibition zone (isolate AB13)?
Answer: 9 mm

Question: What about the Inhibition zone (isolate AB14) of the same compound?
Answer: NZ

Question: What about the Inhibition zone (isolate AB15) of the same compound?
Answer: 13 mm

Question: What about the Inhibition zone (isolate AB16) of the same compound?
Answer: NZ

Question: And the Inhibition zone (isolate AB17)?
Answer: 20 mm

Question: What about the Inhibition zone (isolate AB18) of the same compound?
Answer: 15 mm

Question: What about the Inhibition zone (isolate AB19) of the same compound?
Answer: 13 mm

Question: And the Inhibition zone (isolate AB20)?
Answer: NZ

Question: What about the Inhibition zone (isolate AB21) of the same compound?
Answer: 13 mm

Question: And the Inhibition zone (isolate AB22)?
Answer: 7 mm

Question: And the Inhibition zone (isolate AB23)?
Answer: 10 mm

Question: And the Inhibition zone (isolate AB24)?
Answer: 14 mm

Question: And the Inhibition zone (isolate AB25)?
Answer: 8 mm

Question: What about the Inhibition zone (isolate AB26) of the same compound?
Answer: 20 mm

Question: What about the Inhibition zone (isolate AB27) of the same compound?
Answer: 9 mm

Question: What about the Inhibition zone (isolate AB28) of the same compound?
Answer: 15 mm

Question: And the Inhibition zone (isolate AB29)?
Answer: 15 mm

Question: And the Inhibition zone (isolate AB30)?
Answer: 15 mm

Question: What about the Inhibition zone (isolate AB31) of the same compound?
Answer: 8 mm

Question: What about the Inhibition zone (isolate AB32) of the same compound?
Answer: 10 mm

Question: What about the Inhibition zone (isolate AB33) of the same compound?
Answer: 20 mm

Question: How did the Inhibition zone (isolate AB1) turn out when `CCN1CCN(C(=O)N[C@@H](C(=O)N[C@@H]2C(=O)N3[C@@H]2SC(C)(C)[C@@H]3C(=O)O)c2ccccc2)C(=O)C1=O` [PIP, Piperacillin] was run?
Answer: 21 mm

Question: And the Inhibition zone (isolate AB2)?
Answer: 20 mm

Question: And the Inhibition zone (isolate AB3)?
Answer: 32 mm

Question: What about the Inhibition zone (isolate AB4) of the same compound?
Answer: 21 mm

Question: What about the Inhibition zone (isolate AB5) of the same compound?
Answer: NZ

Question: And the Inhibition zone (isolate AB6)?
Answer: 18 mm

Question: What about the Inhibition zone (isolate AB7) of the same compound?
Answer: NZ

Question: What about the Inhibition zone (isolate AB8) of the same compound?
Answer: NZ

Question: And the Inhibition zone (isolate AB9)?
Answer: 24 mm

Question: And the Inhibition zone (isolate AB10)?
Answer: NZ

Question: And the Inhibition zone (isolate AB11)?
Answer: NZ

Question: What about the Inhibition zone (isolate AB12) of the same compound?
Answer: NZ

Question: And the Inhibition zone (isolate AB13)?
Answer: NZ

Question: And the Inhibition zone (isolate AB14)?
Answer: NZ

Question: What about the Inhibition zone (isolate AB15) of the same compound?
Answer: NZ

Question: And the Inhibition zone (isolate AB16)?
Answer: 16 mm

Question: And the Inhibition zone (isolate AB17)?
Answer: 15 mm

Question: And the Inhibition zone (isolate AB18)?
Answer: 8 mm

Question: What about the Inhibition zone (isolate AB19) of the same compound?
Answer: NZ

Question: What about the Inhibition zone (isolate AB20) of the same compound?
Answer: NZ

Question: What about the Inhibition zone (isolate AB21) of the same compound?
Answer: NZ

Question: And the Inhibition zone (isolate AB22)?
Answer: NZ

Question: And the Inhibition zone (isolate AB23)?
Answer: NZ

Question: What about the Inhibition zone (isolate AB24) of the same compound?
Answer: NZ

Question: And the Inhibition zone (isolate AB25)?
Answer: 10 mm

Question: What about the Inhibition zone (isolate AB26) of the same compound?
Answer: NZ

Question: And the Inhibition zone (isolate AB27)?
Answer: 8 mm

Question: And the Inhibition zone (isolate AB28)?
Answer: 7 mm

Question: And the Inhibition zone (isolate AB29)?
Answer: NZ

Question: And the Inhibition zone (isolate AB30)?
Answer: 8 mm

Question: What about the Inhibition zone (isolate AB31) of the same compound?
Answer: 8 mm

Question: And the Inhibition zone (isolate AB32)?
Answer: 8 mm

Question: And the Inhibition zone (isolate AB33)?
Answer: 22 mm
